One experiment deals with A. baumannii. As to the kind of experiment: HTS total bacterial growth assay (optical density OD560). The conditions noted are these: for AC50: Acinetobacter baumannii, 10 point dose-response 0.1-50 μM, NS* = no sigmoid curve observed, read-out: Total Bacteria Growth AC50. It counts as cell-based, Acinetobacter baumannii. The source says: (§1) Each HTS tier consisted of: (i) primary screening, (ii) confirmation screening and (iii) dose-response curve screening. Each tier of HTS included three distinct biological process assays. The first assay was an optical density measurement of bacteria growth in the presence of each compound reported as a total bacteria growth. In the second assay, resazurin solution was used as an indicator of metabolic activity to measure the live bacteria in the biofilms, reported as live biofilm. The final assay was crystal violet staining, which indicated the amount of biofilm formation and the effect of each compound on this process, reported as total biofilm formation.
(§2) Briefly, stationary phase bacteria grown in L-broth were diluted 1:200 into fresh L-broth and 50 μM of each test compound. After 20-24 hours, the optical density (OD560) of each suspension was measured using Zeiss Plate::Vision with a 560 BP filter (560 nm, 2.5% light intensity, 1 mm focus to bottom of plate, and exposure time of 100 ms). To measure bacterial viability in the biofilm, 50 μl of a 5 mg/ml resazurin solution in L-broth was added to each well after washing 3 times with 50 μl of PBS. The plates were then incubated at 37° C. for 30 or 180 min for A. baumannii and P. aeruginosa biofilms, respectively. Fluorescence was measured using Zeiss Plate::Vision at excitation and emission wavelengths of 535 and 580 nm, 100 ms exposure time, 2.5% intensity and a 2 mm focus to the bottom of the biofilms. To assess biofilm formation, plates were washed 3 times with PBS and then 50 μl of 0.01% of crystal violet was added to each well to assess bacterial biofilm formation as described in a similar borosilicate tube assay by O'Toole and Kolter. After incubation at room temperature for 30 min and removal of the crystal violet solution by washing with PBS, 95% ethanol was added to solubilize the crystal violet followed by incubation for 20 min at room temperature. Finally, the optical density of each plate was determined using measured by Zeiss Plate::Vision using the same settings used to measure total bacterial growth. These 3 steps were used in each of the three tiers for the HTS process: (i) single point primary screening at 10 μM, (ii) triplicate confirmation of hits from (i) at 10 μM and (iii) determination of AC50 values in 10 point dose-response at a concentration range of 0.1-50 μM) in hits from (ii). The AC50 represents the concentration of compound that inhibits 50% of bacterial growth, bacterial viability, or biofilm formation. Genedata Screener® Assay Analyzer Software (Ver. 9.0.0 Standard) was used to analyze data from all assay tiers. Compounds with an AC50 of less than 20 μM in one of the biological assays from the dose response screen were subject to additional investigation.

The test system of experiment [1] is S. epidermidis. The experiment is described as above. The conditions noted are these: Staphylococcus epidermidis, dose-response, read-out: Total Bacteria Growth AC50. It counts as cell-based.
Excerpt: as §1, §2

For a further experiment, the system named is S. epidermidis biofilm. Kind of experiment: HTS total biofilm formation assay (crystal violet staining). It counts as cell-based. The conditions noted are these: Staphylococcus epidermidis, dose-response.
Excerpt: as §1, §2

The next experiment has as its system P. aeruginosa biofilm. As to the kind of experiment: HTS live biofilm assay (resazurin metabolic activity). It counts as cell-based. The conditions noted are these: Pseudomonas aeruginosa, 10 point dose-response 0.1-50 μM.
Excerpt: as §1, §2

In experiment [2] the test system is S. epidermidis. Kind of experiment: MIC determination (CLSI, Mueller Hinton broth), planktonic cultures. It counts as cell-based. The conditions noted are these: Staphylococcus epidermidis. The procedure: A standard protocol for determining the MIC of a specific compound as outlined by the Clinical and Laboratory Standards Institute (CLSI) was used, based on growth of the selected bacteria in Mueller Hinton (MH) broth with subsequent 2-fold dilutions of compounds of interest. Following the CLSI protocols, the MIC of each broad spectrum “hit” compound was performed in all 3 bacterial species in both aerobic and anaerobic conditions. All bacteria were grown in MH broth for 18 hrs at 37° C. The cells were then diluted 100-fold into MH broth containing compounds at concentrations ranging from 0.40-50 μM in the presence of either KNO3 or glucose to allow bacterial growth under anaerobic condition. After 24 hrs of incubation, cell growth was measured at OD600 using a SpectraMax 190 Absorbance Microplate Reader.
The HTS and CLSM assays identified and confirmed compounds that can inhibit biofilms formation in aerobic growth conditions. However, P. aeruginosa and S. epidermidis are capable of growth under anaerobic as well as aerobic conditions. […] The Minimal Inhibitory Concentrations (MIC) of the four broad agent hit compounds under both aerobic and anaerobic conditions of planktonic P. aeruginosa and S. epidermidis cultures were determined to evaluate compound efficacy in different growth conditions. The MICs for A. baumannii were determined only in aerobic conditions. To examine growth in aerobic conditions, bacteria were grown in either Mueller Hinton (MH) media only, MH media in the presence of 1% KNO3, or MH in the presence of 1% glucose. For MIC determinations under anaerobic conditions, growth was examined in MH media with 1% KNO3 or with 1% glucose.

The mark [3] stands for this setting: MH with 1% Glucose, Aerobic, read-out: Minimum Inhibition Concentration.
Where [4] appears, read: MH with 1% Glucose, Anaerobic, read-out: Minimum Inhibition Concentration.
Where [5] appears, read: MH with 1% KNO3, Aerobic, read-out: Minimum Inhibition Concentration.
Setting [6] is: MH with 1% KNO3, Anaerobic, read-out: Minimum Inhibition Concentration.
The mark [7] stands for this setting: MH, Aerobic, read-out: Minimum Inhibition Concentration.
[8] abbreviates: across all media and conditions (aerobic and anaerobic), read-out: concentration required to inhibit planktonic S. epidermidis growth (MIC).

The structures appear in SMILES notation. Values after ≈ are worked out from the molar mass of the structure shown. Like-named read-outs stand apart in the source and are kept apart here.

The term AC50 denotes the concentration at which the activity in the assay is half-maximal. For the compound `Cn1sc(Cl)c(C#N)c1=O` [Compound 3, 5-chloro-2-methyl-3-oxo-1,2-thiazole-4-carbonitrile], the AC50 came to 2.93 µM in the experiment with A. baumannii, 8.89 µM in the experiment on S. epidermidis [1], 8.84 µM with S. epidermidis biofilm and 13.4 µM in the experiment with P. aeruginosa biofilm. The MIC with S. epidermidis [2] (setting [3]) was 10.4 ± 2.08 µM (≈ 1.82 µg/mL); with S. epidermidis [2] (setting [4]) it was 16.7 ± 4.17 µM (≈ 2.91 µg/mL); in the experiment on S. epidermidis [2] (setting [5]), 25 µM (≈ 4.37 µg/mL); in the experiment with S. epidermidis [2] (setting [6]), 16.7 ± 4.17 µM (≈ 2.91 µg/mL); with S. epidermidis [2] (setting [7]) it was 20.8 ± 4.17 µM (≈ 3.64 µg/mL); with S. epidermidis [2] (setting [8]) it was 10 to 25 µM (≈ 1.75 to 4.37 µg/mL).
In the case of `NC(=S)N1CCN(c2cc3c(cc2F)c(=O)c(C(=O)O)cn3C2CC2)CC1` [Compound 7, 7-(4-carbamothioylpiperazin-1-yl)-1-cyclopropyl-6-fluoro-4-oxoquinoline-3-carboxylic acid], the AC50 in the experiment with A. baumannii came to 12.1 µM; in the experiment with S. epidermidis [1] it was 2.2 µM; with S. epidermidis biofilm, 1.12 µM; in the experiment with P. aeruginosa biofilm, 0.38 µM. Also, the MIC is 5.86 ± 2.42 µM (≈ 2.29 µg/mL) in the experiment with S. epidermidis [2] (setting [3]); 5.21 ± 1.04 µM (≈ 2.03 µg/mL) in the experiment on S. epidermidis [2] (setting [4]); 10.4 ± 2.08 µM (≈ 4.07 µg/mL) with S. epidermidis [2] (setting [5]); 5.21 ± 1.04 µM (≈ 2.03 µg/mL) in the experiment on S. epidermidis [2] (setting [6]); 8.33 ± 2.08 µM (≈ 3.25 µg/mL) in the experiment with S. epidermidis [2] (setting [7]); 4 to 10 µM (≈ 1.56 to 3.9 µg/mL) with S. epidermidis [2] (setting [8]).
Turning to `O=C(O)c1cn(C2CC2)c2c(F)c(N3CC(O)C3)c(F)cc2c1=O` [Compound 8, 1-cyclopropyl-6,8-difluoro-7-(3-hydroxyazetidin-1-yl)-4-oxoquinoline-3-carboxylic acid], the AC50 in the experiment with A. baumannii is 3.44 µM; in the experiment with S. epidermidis [1], below 0.1 µM; in the experiment on S. epidermidis biofilm, below 0.1 µM; with P. aeruginosa biofilm, 57 µM. Also, the “HTS assay results: Total Bacteria growth” value in the experiment on A. baumannii (Y / —) is “—* (AC50 higher than 20 μM)”. In addition, the MIC was 0.65 ± 0.13 µM (≈ 0.219 µg/mL) in the experiment on S. epidermidis [2] (setting [3]); 0.78 ± 0.39 µM (≈ 0.262 µg/mL) in the experiment on S. epidermidis [2] (setting [4]); 0.78 ± 0.39 µM (≈ 0.262 µg/mL) in the experiment with S. epidermidis [2] (setting [5]); 0.39 µM (≈ 0.131 µg/mL) with S. epidermidis [2] (setting [6]); 0.65 ± 10.1 µM (≈ 0.219 µg/mL) in the experiment with S. epidermidis [2] (setting [7]); below 1 µM in the experiment with S. epidermidis [2] (setting [8]).
As to `O=C(O)c1cn(C2CC2)c2c(F)c(-c3ccncc3)c(F)cc2c1=O` [Compound 11, 7-(4-pyridyl)-1-cyclopropyl-6,8-difluoro-4-oxoquinoline-3-carboxylic acid], the AC50 is 0.66 µM in the experiment with A. baumannii, below 0.1 µM with S. epidermidis [1], below 0.1 µM in the experiment on S. epidermidis biofilm and 9.6 µM with P. aeruginosa biofilm. Further, the MIC with S. epidermidis [2] (setting [3]) was 7.81 ± 2.71 µM (≈ 2.67 µg/mL); in the experiment on S. epidermidis [2] (setting [4]), 7.29 ± 2.76 µM (≈ 2.5 µg/mL); in the experiment with S. epidermidis [2] (setting [5]) it was 7.81 ± 2.71 µM (≈ 2.67 µg/mL); in the experiment on S. epidermidis [2] (setting [6]), 4.17 ± 1.04 µM (≈ 1.43 µg/mL); in the experiment on S. epidermidis [2] (setting [7]) it was 5.73 ± 3.42 µM (≈ 1.96 µg/mL); in the experiment with S. epidermidis [2] (setting [8]) it was 4 to 10 µM (≈ 1.37 to 3.42 µg/mL).

The values above are taken from patent publication US10704076B2, “Multi-tiered high through-put screen for compounds effective against bacterial biofilm and compounds effective for inhibiting and eradicating bacterial biofilm” (University of Cincinnati, priority 2013, dated 2020).
